Entries after “also recorded” stand apart in the source; their conditions may differ. Where two headings read alike, the source gives them in different places. Square brackets hold non-standard residues; d marks the D form. Ends that are not written are not given here.
Assays:
[1] = tested on: choline acetyl transferase activity; conditions: ApoE-deficient mice with reduced choline acetyl transferase activity; cited from earlier work
[2] = tested on: mice; assay: fetal alcohol syndrome (FAS) model in pregnant mice; conditions: for fetal demise rate: pretreatment 30 minutes prior to alcohol on E8, 20 μg (each), injection, assessed E18, vs alcohol group
[3] = tested on: AF64A-treated rats; assay: AF64A cholinotoxicity in adult rats, Morris water maze; format: in vivo; conditions: for Morris water maze, summation of the two daily tests, vs AF64A / Morris water maze, summation of the two daily tests: 10 microgram per rat per day under the tongue
Source text: FIGS. 14A and B illustrate the effect of oral administration of D-NAPVSIPQ+D-SALLRSIPA on learning and memory in rats treated with the cholinotoxin AF-64A. Short-term memory processes were examined by performance in the Morris water maze, measuring the time required to find the hidden platform in the second of two daily trials. The platform location and the starting point in which the animal was placed in the water were held constant within each pair of daily trials, but both locations were changed every day. For the first test, both the platform and the animal were situated in a new location with regard to the pool (with the pool being immobile). The experiment was performed as follows: the animal was positioned on the platform for 0.5 minute, then placed in the water. […] After 0.5 minute on the platform, the animal was placed back in the water (in the previous position) for an additional second test (FIG. 14B) and search for the hidden platform (retained in the previous position). The time required to reach the platform in the second trial was recorded, indicative of short-term (working) memory. All measurements were performed using the computerized video-assisted HVS water maze system (HVS Image Ltd. Hampton, UK). Animals were tested for four days to eliminate random memory defective animals. The designated n is the number of animals tested. Each point is the mean+the standard error.
Rats (male Wistar, 300-350 g) were subjected to two daily tests in a water maze, including a hidden platform (Morris, J. Neurosci. Methods 11:47-60 (1984) and Gordon et al., Neurosci. Lett. 199:1-4 (1995); Gozes et al., J. Neurobiol. 33:329-342 (1997)). Every day for the first test, both the platform and the animal were situated in a new location with regard to the pool (with the pool being immobile). The experiment was performed as follows: the animal was positioned on the platform for 0.5 minutes then placed in the water. The time required to reach the platform (indicative of learning and intact reference memory) was measured (first test). After 0.5 minute on the platform, the animal was placed back in the water (in the previous position) for an additional second test and search for the hidden platform (retained in the previous position). The time required to reach the platform in the second trial was recorded, indicative of short-term (working) memory. All measurements were performed using the computerized video-assisted HVS water maze system (HVS Image Ltd. Hampton, UK). Animals were tested for four days to eliminate random memory defective animals. The best performers were injected i.c.v. at a rate of 0.21 μl/min. with the cholinotoxin ethylcholine aziridium (AF64A, 3 nmolI2 μl/side), control animals received an injection of saline (Gozes et al, Proc. Natl. Acad. Sci. USA 93:427-432 (1996)).
Animals were allowed to recover for one week, followed by daily exposure to three micrograms of D-SAL+three micrograms of D-NAP, in 20 microliter saline, applied orally on the tongue. After a week of oral peptide application, the animals were subjected to two daily tests in the water maze (as above). During the test-period, animals were also given an oral administration of peptide or vehicle (carrier) an hour before the daily test.
FIG. 14C illustrates the effect of oral administration of D-SALLRSIPA alone on learning and memory in rats treated with the cholinotoxin AF-64A. Rats were treated with the cholinotoxin AF-64A and D-SALLRSIPA as described in Gozes et al., J. Pharmacol. Exp. Therap. 293: 1091-1098 (2000), except that D-SALLRSIPA was delivered to AF64A-treated rats was as follows: 10 microgram D-SALLRSIPA (D-SAL) per rat (250-300 g) per day in 50 microliter saline under the tongue, using a micropipette. Peptides were applied once daily for three days, a week after the AF64A lesion. After a 2-day cessation, peptides were applied once daily for another 5 days and tested from day three on. […]

[4] = tested on: dissociated cerebral cortical cultures (neurons); format: cell-based, rat; conditions: 5 days
[5] = single peptide, 1 μM tetrodotoxin, neuronal cell counts

Substance | cholinergic function [1] | fetal demise rate [2] | survival-promoting activity (preventing neuronal cell death associated with electrical blockade with TTX) [4, 5] | further results
SALLRSIPA [L-SAL] | less effective | – | – | –
Ser-Ala-Leu-Leu-Arg-Ser-Ile-Pro-Ala [D-SAL] ([dS][dA][dL][dL][dR][dS][dI][dP][dA]) | – | significantly reduced the fetal demise rate; also recorded: prevents fetal demises | identical in both potency and efficacy; also recorded: virtually identical in neuronal survival activity in vitro | fetal death ([2]; oral by gavage 30 minutes prior to alcohol, 40 μg, assessed on E18): prevent fetal death; learning and memory, overall conclusion ([3]; D-SALLRSIPA alone, oral, AF64A-treated rats): effective on its own; Morris water maze, summation of the two daily tests, vs AF64A ([3]; Day 1): P<0.04 D-SALLRSIPA-AF64A vs. AF64A; Morris water maze, summation of the two daily tests ([3]; Day 2): not significantly different from either AF64A animals or control; Morris water maze, summation of the two daily tests ([3]; Day 3): No difference; Morris water maze, summation of the two daily tests ([3]; Day 4): No difference; Morris water maze, summation of the two daily tests, vs AF64A ([3]; Day 5, t-test): P<0.04 D-SALLRSIPA-AF64A vs. AF64A
Asn-Ala-Pro-Val-Ser-Ile-Pro-Gln [L-NAP, reference compound] | significantly increased cholinergic function to control levels | – | very similar, with each exhibiting a complex dose response with two apparent maxima; also recorded: virtually identical in neuronal survival activity in vitro | –
Asn-Ala-Pro-Val-Ser-Ile-Pro-Gln [D-NAP] | – | significantly reduced the fetal demise rate; also recorded: prevents fetal demises | very similar, with each exhibiting a complex dose response with two apparent maxima; also recorded: virtually identical in neuronal survival activity in vitro | –
SALLRSIPA [reference compound] | – | – | identical in both potency and efficacy; also recorded: virtually identical in neuronal survival activity in vitro | –
D-NA{L-P}VSIPQ: NAPVSIPQ with all amino acids in the D-form, except the third proline residue in the L-form | – | – | – | survival-promoting activity (preventing neuronal cell death associated with electrical blockade with TTX) [4]: retained survival-promoting activity and was effective in cell culture in preventing neuronal cell death
